In assay [1] the target is T1, cyclin D1/cdk 4 enzyme (Homo sapiens, UniProt P11802).
T1 construct: made in house; host or cells: Sf9 insect cells, recombinant baculovirus
Briefly: CDK4 ELISA kinase assay (phospho-Rb ser 795 detection). It counts as biochemical. The note with it: In Vitro Enzyme Assay, cyclin D1/cdk 4, read-out: CDK4 IC50. Put shortly:
(§1)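 Screening was done at 10 ug/ml compound. Each partially purified cyclin/CDK complex, produced in baculovirus-infected Sf9 cells, phosphorylated a coated GST-Rb C-terminal fragment with 200 μM ATP, and Ser795 phosphorylation was quantified by HRP-ELISA at 450 nm.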

Assay [2] has as its target T2, cyclin E/CDK2 enzyme (Homo sapiens, UniProt P24941).
T2 construct: made in house; host or cells: Sf9 insect cells, recombinant baculovirus
Briefly: CDK2 ELISA kinase assay (phospho-Rb ser 795 detection). Type of assay: biochemical. The note with it: In Vitro Enzyme Assay, cyclin E/CDK2, read-out: CDK2 IC50. An outline of the steps:
as §1

The target of assay [3] is T3, cyclin B/CDK1 enzyme (Homo sapiens, UniProt P06493).
T3 construct: purchased New England BioLabs; host or cells: Sf9 insect cells, recombinant baculovirus
T3 sequence (P06493 whole entry): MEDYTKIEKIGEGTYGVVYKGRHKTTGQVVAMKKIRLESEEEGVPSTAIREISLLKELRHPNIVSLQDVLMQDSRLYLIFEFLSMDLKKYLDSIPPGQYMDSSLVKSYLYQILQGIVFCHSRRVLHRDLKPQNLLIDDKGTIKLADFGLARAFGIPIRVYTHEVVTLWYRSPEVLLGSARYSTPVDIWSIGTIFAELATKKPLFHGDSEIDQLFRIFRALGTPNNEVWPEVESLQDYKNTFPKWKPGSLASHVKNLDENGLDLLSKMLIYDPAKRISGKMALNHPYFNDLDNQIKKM
T3 sequence (P14635 whole entry partner): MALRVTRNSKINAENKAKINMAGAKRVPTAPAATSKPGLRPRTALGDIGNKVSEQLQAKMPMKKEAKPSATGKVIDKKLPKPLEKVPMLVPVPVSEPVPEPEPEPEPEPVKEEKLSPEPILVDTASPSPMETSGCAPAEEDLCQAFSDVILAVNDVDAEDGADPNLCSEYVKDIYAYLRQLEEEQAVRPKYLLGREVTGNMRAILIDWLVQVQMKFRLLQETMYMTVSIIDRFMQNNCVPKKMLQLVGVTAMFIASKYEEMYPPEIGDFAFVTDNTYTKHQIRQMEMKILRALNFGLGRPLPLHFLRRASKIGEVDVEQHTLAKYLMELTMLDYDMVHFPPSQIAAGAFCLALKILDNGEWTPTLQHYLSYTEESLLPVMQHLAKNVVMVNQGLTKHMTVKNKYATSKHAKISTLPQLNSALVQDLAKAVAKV
Briefly: CDK1 ELISA kinase assay (phospho-Rb ser 795 detection). Type of assay: biochemical. The note with it: In Vitro Enzyme Assay, cyclin B/CDK1, read-out: CDK1 IC50. An outline of the steps: as §1

In assay [4] the test system is BT474. Briefly: Cytotoxicity assay (SRB), BT474. It counts as cell-based. The note with it: Homo sapiens, BT-474, 144 h, BT474 cells, 6 days, SRB; read-out: In Vitro Cellular Activity IC50 BT474. Put shortly:
(§2)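 Plate cells, let them attach overnight, add compound dilutions in RPMI 1640/5% FBS, and incubate 3 days (BT474 6 days). Then fix with TCA, stain with SRB, dissolve the dye in Tris and read at 540 nm.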

Assay [5] has as its system HCT-116. In words: Cytotoxicity assay (SRB), HCT-116. It counts as cell-based. The note with it: Homo sapiens, HCT-116, 72 h, HCT116 cells, 3 days, SRB; read-out: In Vitro Cellular Activity IC50 HCT116. An outline of the steps: as §2
The test system of assay [6] is LoVo. Briefly: Cytotoxicity assay (SRB), LoVo. Type of assay: cell-based. The settings on record: Homo sapiens, LoVo, 72 h, LoVo cells, 3 days, SRB; read-out: In Vitro Cellular Activity IC50 LOVO. Put shortly:
as §2

In assay [7] the test system is MCF-7. In words: Cytotoxicity assay (SRB), MCF-7. The settings on record: Homo sapiens, MCF7, 72 h, MCF-7 cells, 3 days, SRB; read-out: In Vitro Cellular Activity IC50 MCF-7. Type of assay: cell-based. An outline of the steps:
as §2

For 16 compounds, IC50 results are on record in patent publication US7713994B2 (Wyeth LLC, priority 2005, dated 2010).

T1 sequence (P11802 whole entry, species assumed): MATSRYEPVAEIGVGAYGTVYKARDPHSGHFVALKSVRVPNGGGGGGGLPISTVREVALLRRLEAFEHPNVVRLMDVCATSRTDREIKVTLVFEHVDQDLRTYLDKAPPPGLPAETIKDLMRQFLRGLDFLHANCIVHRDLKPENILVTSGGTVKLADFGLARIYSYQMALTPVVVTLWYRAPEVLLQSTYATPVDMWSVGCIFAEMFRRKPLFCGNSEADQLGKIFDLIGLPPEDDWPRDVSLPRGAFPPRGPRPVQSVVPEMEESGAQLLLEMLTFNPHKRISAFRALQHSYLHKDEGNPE
T1 sequence (P24385 whole entry partner, species assumed): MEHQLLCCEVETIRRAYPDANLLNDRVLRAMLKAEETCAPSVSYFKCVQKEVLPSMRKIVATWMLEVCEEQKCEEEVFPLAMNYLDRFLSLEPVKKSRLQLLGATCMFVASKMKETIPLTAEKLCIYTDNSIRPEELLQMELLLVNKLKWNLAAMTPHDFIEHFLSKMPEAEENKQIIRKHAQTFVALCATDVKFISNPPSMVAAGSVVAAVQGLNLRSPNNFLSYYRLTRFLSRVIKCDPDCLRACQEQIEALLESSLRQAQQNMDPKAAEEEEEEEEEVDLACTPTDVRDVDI

For `O=C1NC(=O)c2ccc(C=Cn3ccnc3)cc2C1=CNCc1ccc(O)c(O)c1` [Example 667, 4-[(3,4-Dihydroxy-benzylamino)-methylene]-6-(2-imidazol-1-yl-vinyl)-4H-isoquinoline-1,3-dione], the IC50 in assay [1] was 10 nM; in assay [2] it was 4 µM; in assay [3], above 50 µM; in assay [4], above 50 µM; in assay [5], above 50 µM; in assay [6], 29.4 µM. Also, the IC50 in assay [7] amounted to 12.4 µM.
Turning to `CN1CCN(c2ccc(NC=C3C(=O)NC(=O)c4ccc(-c5ccc6[nH]ccc6c5)cc43)cc2)CC1` [Example 671, 6-(1H-Indol-5-yl)-4-{[4-(4-methyl-piperazin-1-yl)-phenylamino]-methylene}-4H-isoquinoline-1,3-dione], the IC50 in assay [1] stood at 2000 nM; in assay [2], 38 µM; in assay [3], 11.8 µM; in assay [4] it was 2.8 µM; in assay [5] it was 2.3 µM; in assay [6] it was 4.1 µM. Besides, the IC50 in assay [7] is 4.4 µM.
Consider `CN1CCN(c2ccc(NC=C3C(=O)NC(=O)c4ccc(-c5ccc[nH]5)cc43)cc2)CC1` [Example 672, 4-{[4-(4-Methyl-piperazin-1-yl)-phenylamino]-methylene}-6-(1H-pyrrol-2-yl)-4H-isoquinoline-1,3-dione], for which the IC50 is 640 nM in assay [1]; above 50 µM in assay [2]; above 50 µM in assay [3]; 7.9 µM in assay [4]; 3.4 µM in assay [5]; 2.9 µM in assay [6]. Besides, in assay [7], the IC50 is 3.2 µM.
Take `CN1CCN(c2ccc(NC=C3C(=O)NC(=O)c4ccc(-c5cc[nH]c5)cc43)cc2)CC1` [Example 673, 4-{[4-(4-Methyl-piperazin-1-yl)-phenylamino]-methylene}-6-(1H-pyrrol-3-yl)-4H-isoquinoline-1,3-dione]: the half-inhibitory concentration (IC50) was 1000 nM in assay [1]; above 50 µM in assay [2]; above 50 µM in assay [3]; 8.5 µM in assay [4]; 3 µM in assay [5]; 5 µM in assay [6]. In addition, the half-maximal inhibitory concentration (IC50) in assay [7] was 5.8 µM.
`CN1CCN(c2ccc(NC=C3C(=O)NC(=O)c4ccc(C=Cc5ccccn5)cc43)cc2)CC1` [Example 675, 4-{[4-(4-Methyl-piperazin-1-yl)-phenylamino]-methylene}-6-(2-pyridin-2-yl-vinyl)-4H-isoquinoline-1,3-dione]: the 50% inhibitory concentration (IC50) in assay [1] is 1770 nM; in assay [2], above 50 µM; in assay [3], above 50 µM; in assay [4] it was 7.7 µM; in assay [5] it was 2.3 µM; in assay [6], 6.8 µM. Moreover, in assay [7], the IC50 was determined as 7.2 µM.
On to `CN1CCN(c2ccc(NC=C3C(=O)NC(=O)c4ccc(C=Cc5ccncc5)cc43)cc2)CC1` [Example 676, 4-{[4-(4-Methyl-piperazin-1-yl)-phenylamino]-methylene}-6-(2-pyridin-4-yl-vinyl)-4H-isoquinoline-1,3-dione], for which the IC50 in assay [1] was determined as 920 nM; in assay [2] it was 15.8 µM; in assay [3], 15.1 µM; in assay [4], 7.7 µM; in assay [5], 2.5 µM; in assay [6], 4.6 µM. For the same compound, in assay [7], the IC50 was determined as 7.3 µM.
Regarding `CN1CCN(c2ccc(NC=C3C(=O)NC(=O)c4ccc(C=Cc5cnccn5)cc43)cc2)CC1` [Example 678, 4-{[4-(4-Methyl-piperazin-1-yl)-phenylamino]-methylene}-6-(2-pyrazin-2-yl-vinyl)-4H-isoquinoline-1,3-dione], the half-inhibitory concentration (IC50) in assay [1] was 1160 nM; in assay [2] it was above 50 µM; in assay [3] it was 14.4 µM; in assay [4], 9.1 µM; in assay [5], 3.5 µM; in assay [6], 6.1 µM. The half-maximal inhibitory concentration (IC50) in assay [7] came out at 10.5 µM.
For the compound `CN1CCN(c2ccc(NC=C3C(=O)NC(=O)c4ccc(C=Cn5ccnc5)cc43)cc2)CC1` [Example 680, 6-(2-Imidazol-1-yl-vinyl)-4-{[4-(4-methyl-piperazin-1-yl)-phenylamino]-methylene}-4H-isoquinoline-1,3-dione], the IC50 in assay [1] is 230 nM; in assay [2] it was above 50 µM; in assay [3] it was above 50 µM; in assay [4], 15.2 µM; in assay [5], 5.9 µM; in assay [6] it was 4.7 µM. For the same compound, the IC50 in assay [7] amounted to 6.9 µM.
Regarding `CN1CCN(c2ccc(NC=C3C(=O)NC(=O)c4ccc(-c5ccc(C(=O)O)cc5)cc43)cc2)CC1` [Example 685, 4-(4-{[4-(4-Methyl-piperazin-1-yl)-phenylamino]-methylene}-1,3-dioxo-1,2,3,4-tetrahydro-isoquinolin-6-yl)-benzoic acid], the concentration for half-maximal inhibition (IC50) in assay [1] was 1510 nM; in assay [2], above 50 µM; in assay [3], above 50 µM; in assay [4], 36.9 µM; in assay [5] it was 18.4 µM; in assay [6] it was 25 µM. In addition, the half-maximal inhibitory concentration (IC50) in assay [7] turned out to be 22.1 µM.
With `CC(=O)c1ccc(-c2ccc3c(c2)C(=CNc2ccc(N4CCN(C)CC4)cc2)C(=O)NC3=O)cc1` [Example 688, 6-(4-Acetyl-phenyl)-4-{[4-(4-methyl-piperazin-1-yl)-phenylamino]-methylene}-4H-isoquinoline-1,3-dione], the IC50 in assay [1] was 260 nM; in assay [2], above 50 µM; in assay [3], 21.1 µM; in assay [4] it was 3.3 µM; in assay [5] it was 2 µM; in assay [6], 4.6 µM. In addition, the 50% inhibitory concentration (IC50) in assay [7] worked out at 5 µM.
For the compound `CN1CCN(c2ccc(NC=C3C(=O)NC(=O)c4ccc(-c5ccc(C=CC(=O)O)cc5)cc43)cc2)CC1` [Example 698, 3-[4-(4-{[4-(4-Methyl-piperazin-1-yl)-phenylamino]-methylene}-1,3-dioxo-1,2,3,4-tetrahydro-isoquinolin-6-yl)-phenyl]-acrylic acid], the IC50 in assay [1] is 280 nM; in assay [2], above 50 µM; in assay [3], above 50 µM; in assay [4], 48.1 µM; in assay [5], 46.3 µM; in assay [6] it was above 50 µM. Also, the IC50 in assay [7] is above 50 µM.
Turning to `CN1CCN(c2ccc(NC=C3C(=O)NC(=O)c4ccc(C=Cc5ccc(S(N)(=O)=O)cc5)cc43)cc2)CC1` [Example 728, 4-[2-(4-{[4-(4-Methyl-piperazin-1-yl)-phenylamino]-methylene}-1,3-dioxo-1,2,3,4-tetrahydro-isoquinolin-6-yl)-vinyl]-benzenesulfonamide], the 50% inhibitory concentration (IC50) was 70 nM in assay [1]; 1.3 µM in assay [2]; 1 µM in assay [3]; above 50 µM in assay [4]; 29.1 µM in assay [5]; above 50 µM in assay [6]. The IC50 in assay [7] is above 50 µM.
With `COc1ccc(CNC=C2C(=O)NC(=O)c3ccc(C=Cn4ccnc4)cc32)cc1O` [Example 734, 4-[(3-Hydroxy-4-methoxy-benzylamino)-methylene]-6-(2-imidazol-1-yl-vinyl)-4H-isoquinoline-1,3-dione], the IC50 in assay [1] is below 5 nM; in assay [2], 5 µM; in assay [3] it was 20.2 µM; in assay [4], 9.9 µM; in assay [5], 11.9 µM; in assay [6] it was 2.5 µM. For the same compound, the IC50 in assay [7] is 6.7 µM.
In the case of `COc1ccc(CNC=C2C(=O)NC(=O)c3ccc(C=Cc4ccccn4)cc32)cc1O` [Example 735, 4-[(3-Hydroxy-4-methoxy-benzylamino)-methylene]-6-(2-pyridin-2-yl-vinyl)-4H-isoquinoline-1,3-dione], the IC50 in assay [1] is 140 nM; in assay [2], above 50 µM; in assay [3], above 50 µM; in assay [4], 20.1 µM; in assay [5] it was 18.2 µM; in assay [6] it was 11.4 µM. Besides, in assay [7], the IC50 came out at 21.9 µM.
Regarding `CN(C)Cc1ccc(C=Cc2ccc3c(c2)C(=CNCc2ccc(O)c(O)c2)C(=O)NC3=O)cc1` [Example 736, 4-[(3,4-Dihydroxy-benzylamino)-methylene]-6-[2-(4-dimethylaminomethyl-phenyl)-vinyl]-4H-isoquinoline-1,3-dione], the 50% inhibitory concentration (IC50) in assay [1] is 840 nM; in assay [2] it was 21.1 µM; in assay [3], above 50 µM; in assay [4] it was 39.9 µM; in assay [5], 20.5 µM; in assay [6] it was 11.5 µM. Besides, the IC50 in assay [7] was above 50 µM.
Take `NS(=O)(=O)c1ccc(CNC=C2C(=O)NC(=O)c3ccc(-c4ccc(F)cc4)cc32)cc1` [Example 738, 4-({[6-(4-Fluoro-phenyl)-1,3-dioxo-2,3-dihydro-1H-isoquinolin-4-ylidenemethyl]-amino}-methyl)-benzenesulfonamide]: the IC50 in assay [1] was 450 nM; in assay [2], 32.4 µM; in assay [3], 32.4 µM; in assay [4], 47.1 µM; in assay [5], 18.8 µM; in assay [6] it was 39.1 µM. In addition, the IC50 in assay [7] was 15.8 µM.
